Assays:
BET BD2 = conditions: cited from earlier work
BRD4 BD1 [1] = type: binding, human; conditions: TR-FRET
Method: (§1) As a strategic decision, every compound synthesized across all of GSK’s bromodomain research projects was tested in both a BRD4 BD1 and a BRD4 BD2 TR-FRET assay as part of tier 1 data generation. […] LipE is a straightforward, yet powerful metric for medicinal chemistry teams to normalize potency relative to lipophilicity, a critical factor both for parameters of the human dose equation and also for promiscuity.[43],[44] To aid interpretation, diagonal lines representing different LipE values are shown, with the most desirable space found toward the top left-hand area of the plot representing molecules with the comparatively highest potency per unit of lipophilicity.
(§2) All TR-FRET and hWB cytokine assays have been described previously.[54]

[2] = CLND kinetic aqueous solubility; conditions: aqueous (buffer not specified)
[3] = Chromatographic LogD at pH 7.4; conditions: pH 7.4
BRD4 BD2 = BRD4 BD2 TR-FRET assay; type: binding, human
Method: as §1, §2

MCP-1 = assay: LPS-stimulated human whole blood (hWB) MCP-1 release assay; type: cell-based; conditions: LPS-stimulated human whole blood; read-out: hWB MCP-1 pIC50 (converted)
From the text: The utility of a chemical probe in target validation is directly related to its quality, with important publications detailing requirements to aid researchers.[36]−[38] […] It was accepted that selectivity would be judged initially through a mutant BRD4 TR-FRET assay and would likely shift depending on the protein construct and assay format. […] Previous studies have shown that BET BD1 inhibition is sufficient to inhibit in vitro production of MCP-1 in LPS-stimulated hWB and, as such, served as a relevant measure of cellular target engagement and, concomitantly, proof of cellular permeability.[12],[39] Selectivity over other human bromodomains outside of the BET family, known collectively as non-BET bromodomains, was also required,[40] with a ≥ 100-fold selectivity window targeted. To ensure the molecules remained within developable chemical space, a target property forecast index (PFI) as defined by chromLogDpH7.4 + number of aromatic rings ≤6 was set.[41]
(§3) To understand cellular target engagement, 21 was tested in an LPS-stimulated hWB assay measuring inhibition of the inflammatory mediator MCP-1 secretion.
as §2

CAD aqueous solubility = assay: CAD aqueous solubility
Method: as §3
ChromatographicLogD at pH 7.4, artificial membrane permeability, CLND solubility, and CAD solubility were measured using published protocols.[55]

BET BD1 = conditions: cited from earlier work
BRD4 BD1 [4] = conditions: literature compound, no reference given; cited from earlier work

Structure (SMILES): CCNC(=O)c1cc2c(-c3cc(C(C)(C)O)ccc3Oc3c(C)cc(F)cc3C)cn(C)c(=O)c2[nH]1 [ABBV-744]
- BD2 selectivity over BET BD1 (BET BD2): 330 fold

Structure (SMILES): COc1cc(OC)c2c(=O)[nH]c(-c3cc(C)c(OCCO)c(C)c3)nc2c1 [Apabetalone/RVX-208]
- BD2 selectivity over BET BD1 (BET BD2): 10 fold

Structure (SMILES): Cc1cc(-c2nc3ccccc3n2C[C@@H]2CCCNC2)cn(C)c1=O [Compound 19, (R)-1,3-Dimethyl-5-(1-(piperidin-3-ylmethyl)-1H-benzo[d]imidazole-2-yl)pyridin-2(1H)-one]
- BRD4 BD1 FRET pIC50 (BRD4 BD1 [1]): 6.2
- fold selectivity (BRD4 BD1 over BRD4 BD2) (BRD4 BD1 [1]): 16 fold
- solubility [2]: ≥ 152 µg/mL
- chromatographic logD [3]: 0.7
- BRD4 BD2 FRET pIC50 (BRD4 BD2): 5.0

Structure (SMILES): Cc1cc(-c2nc3ccccc3n2C[C@@H]2CCCN(C(=O)C3CCN(CCF)CC3)C2)cn(C)c1=O [Compound 34, (S)-5-(1-((1-(1-(2-Fluoroethyl)piperidine-4-carbonyl)piperidin-3-yl)methyl)-1H-benzo[d]imidazole-2-yl)-1,3-dimethylpyridin-2(1H)-one]
- IC50 (MCP-1): 63.1 nM
- BRD4 BD1 FRET pIC50 (BRD4 BD1 [1]): 7.6
- fold selectivity (BRD4 BD1 over BRD4 BD2) (BRD4 BD1 [1]): 794 fold
- pKa (pKa of the basic amine): 7.3
- chromatographic logD [3]: 2.5
- BRD4 BD2 FRET pIC50 (BRD4 BD2): 4.7
- solubility (CAD aqueous solubility): ≥ 207 µg/mL

Structure (SMILES): Cc1cc(-c2nc3ccccc3n2C[C@@H]2CCCN(C(=O)C3CCN(CC(F)F)CC3)C2)cn(C)c1=O [Compound 35, (S)-5-(1-((1-(1-(2,2-Difluoroethyl)piperidine-4-carbonyl)piperidin-3-yl)methyl)-1H-benzo[d]imidazole-2-yl)-1,3-dimethylpyridin-2(1H)-one]
- IC50 (MCP-1): 631 nM
- BRD4 BD1 FRET pIC50 (BRD4 BD1 [1]): 6.7
- fold selectivity (BRD4 BD1 over BRD4 BD2) (BRD4 BD1 [1]): 100 fold
- pKa (pKa of the basic amine): 4.2
- chromatographic logD [3]: 3.2
- BRD4 BD2 FRET pIC50 (BRD4 BD2): 4.7
- solubility (CAD aqueous solubility): ≥ 279 µg/mL

Structure (SMILES): COCc1nc2cnc3cc(-c4c(C)noc4C)c(OC[C@H]4CCNC4)cc3c2n1[C@H](C)c1ccccc1 [GSK778]
- IC50 (BET BD1): < 100 nM
- selectivity for BET BD1 over BET BD2 (BET BD1): 30–140 fold

Structure (SMILES): COc1ccccc1S(=O)(=O)Nc1ccc2c3c(cc(-n4cnc(C)c4)nc13)C(=O)N2C [LT052]
- IC50 (BRD4 BD1 [4]): 88 nM
- selectivity for BRD4 BD1 over BRD4 BD2 (BRD4 BD1 [4]): 138 fold
